Earlier results as cited in publication PMC12051155 (Molecular Metabolism, 2025).

- half-life in humans: 13 h
Structure (SMILES): CCCCCCCCCCCCCCCC(=O)N[C@@H](CCC(=O)NCCCC[C@H](NC(=O)[C@H](C)NC(=O)[C@H](C)NC(=O)[C@H](CCC(N)=O)NC(=O)CNC(=O)[C@H](CCC(=O)O)NC(=O)[C@H](CC(C)C)NC(=O)[C@H](Cc1ccc(O)cc1)NC(=O)[C@H](CO)NC(=O)[C@H](CO)NC(=O)[C@@H](NC(=O)[C@H](CC(=O)O)NC(=O)[C@H](CO)NC(=O)[C@@H](NC(=O)[C@H](Cc1ccccc1)NC(=O)[C@@H](NC(=O)CNC(=O)[C@H](CCC(=O)O)NC(=O)[C@H](C)NC(=O)[C@@H](N)Cc1cnc[nH]1)[C@@H](C)O)[C@@H](C)O)C(C)C)C(=O)N[C@@H](CCC(=O)O)C(=O)N[C@@H](Cc1ccccc1)C(=O)N[C@H](C(=O)N[C@@H](C)C(=O)N[C@@H](Cc1c[nH]c2ccccc12)C(=O)N[C@@H](CC(C)C)C(=O)N[C@H](C(=O)N[C@@H](CCCNC(=N)N)C(=O)NCC(=O)N[C@@H](CCCNC(=N)N)C(=O)NCC(=O)O)C(C)C)[C@@H](C)CC)C(=O)O [liraglutide]
